# Where a name gives a salt, the structure may show the parent alone. Read-outs that look alike come from different tables or passages of the source.
# Target: Human complement C1s enzyme (Homo sapiens (Human), UniProt P09871)
# Test: Human C1s enzyme assay
# Format: biochemical
# Conditions: read-out: IC50 (Stars)
# Experimental: Human complement C1s enzyme (purified from human serum, Complement Technology, Inc.) at 1.16 nM final concentration was incubated with test compound at various concentrations for 5 min at room temperature in 50 mM Tris, 1 M NaCl, pH 7.5. A synthetic substrate Z-L-Lys-SBzl and DTNB (Ellman's reagent) were added to final concentrations of 100 μM each. Absorbance at 405 nm (A405) was recorded at 30 second intervals for 30 min using a microplate spectrophotometer. IC50 values were calculated by nonlinear regression of complement C1s reaction rates as a function of test compound concentration.
# [1] = Human complement C1s enzyme 1.16 nM, substrate Z-L-Lys-SBzl 100 μM, assay of Example 3
# [2] = Human C1s enzyme assay of Example 3
# [3] = Human complement C1s enzyme 1.16 nM, substrate Z-L-Lys-SBzl, assay of Example 3
# Human complement C1s enzyme, sequence (P09871 438-688 limits assumed): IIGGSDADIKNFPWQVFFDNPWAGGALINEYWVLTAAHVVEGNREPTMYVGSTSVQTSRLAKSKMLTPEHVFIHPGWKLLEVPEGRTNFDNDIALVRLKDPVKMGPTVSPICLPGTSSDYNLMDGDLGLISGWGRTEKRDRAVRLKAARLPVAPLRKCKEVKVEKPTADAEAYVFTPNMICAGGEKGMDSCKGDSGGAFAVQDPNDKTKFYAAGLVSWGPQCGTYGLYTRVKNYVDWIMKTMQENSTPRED
# Human complement C1s enzyme, sequence (P09871 16-437 partner limits assumed): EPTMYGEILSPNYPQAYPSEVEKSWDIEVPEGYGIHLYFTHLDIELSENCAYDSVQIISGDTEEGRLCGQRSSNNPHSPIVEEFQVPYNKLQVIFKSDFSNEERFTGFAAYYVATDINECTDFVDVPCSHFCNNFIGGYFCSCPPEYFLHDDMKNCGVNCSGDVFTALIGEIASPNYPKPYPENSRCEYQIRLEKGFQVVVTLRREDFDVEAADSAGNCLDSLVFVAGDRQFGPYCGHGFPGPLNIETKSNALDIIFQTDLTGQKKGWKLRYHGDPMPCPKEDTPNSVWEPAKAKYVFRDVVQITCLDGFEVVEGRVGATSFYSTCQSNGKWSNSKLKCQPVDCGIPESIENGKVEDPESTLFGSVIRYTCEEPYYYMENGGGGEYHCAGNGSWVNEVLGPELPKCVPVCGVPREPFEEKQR
smiles,measurement,setting,value
"Cc1cc2c(cc1C(=O)NCC(=O)N1CC3(C[C@H]1C(=O)N[C@H](C)c1cc(C(=N)N)cs1)OCCO3)-c1ccccc1C2(F)F [Compound 237, (S)—N—((R)-1-(4-carbamimidoylthiophen-2-yl)ethyl)-7-((9,9-difluoro-2-methyl-9H-fluorene-3-carbonyl)glycyl)-1,4-dioxa-7-azaspiro[4.4]nonane-8-carboxamide]",IC50,[1],< 100 nM
"C[C@H](NC(=O)c1ccc(-c2ccc(F)cc2F)cc1)C(=O)N1CC2(C[C@H]1C(=O)NCc1cc(C(=N)N)cs1)OCCO2 [Compound 291, (S)—N-((4-carbamimidoylthiophen-2-yl)methyl)-7-((2′,4′-difluoro-[1,1′-biphenyl]-4-carbonyl)-L-alanyl)-1,4-dioxa-7-azaspiro[4.4]nonane-8-carboxamide]",IC50,[1],< 100 nM
"C[C@@H](NC(=O)[C@@H]1C[C@](F)(COCCCCCCCCCC(=O)O)CN1C(=O)CNC(=O)c1ccc2c(c1)-c1ccccc1C2(F)F)c1cc(C(=N)N)cs1 [Compound 194, 10-(((3R,5S)-5-(((R)-1-(4-carbamimidoylthiophen-2-yl)ethyl)carbamoyl)-1-((9,9-difluoro-9H-fluorene-3-carbonyl)glycyl)-3-fluoropyrrolidin-3-yl)methoxy)decanoic acid]",IC50,[2],< 100 nM
"Cc1ccccc1[C@H]1C[C@@H](C(=O)N[C@H](C)c2cc(C(=N)N)cs2)N(C(=O)CNC(=O)c2ccc3oc4ccccc4c3c2)C1 [Compound 236, (2S,4R)—N—((R)-1-(4-carbamimidoylthiophen-2-yl)ethyl)-1-((dibenzo[b,d]furan-2-carbonyl)glycyl)-4-(o-tolyl)pyrrolidine-2-carboxamide]",IC50,[1],< 100 nM
"Cc1ccc(Oc2ccc(C(=O)NCC(=O)N3[C@H]4C[C@@]4(C)C[C@H]3C(=O)N[C@H](C)c3cc(C(=N)N)cs3)cc2)cc1 [Compound 7, (1S,3S,5S)—N—((R)-1-(4-carbamimidoylthiophen-2-yl)ethyl)-5-methyl-2-((4-(p-tolyloxy)benzoyl)glycyl)-2-azabicyclo[3.1.0]hexane-3-carboxamide]",IC50,[2],< 100 nM
"C[C@@H](NC(=O)[C@@H]1CC2(CN1C(=O)CNC(=O)c1cccc(-c3ccccc3)c1)OCCO2)c1cc(C(=N)N)cs1 [Compound 109, (S)-7-(([1,1′-biphenyl]-3-carbonyl)glycyl)-N—((R)-1-(4-carbamimidoylthiophen-2-yl)ethyl)-1,4-dioxa-7-azaspiro[4.4]nonane-8-carboxamide]",IC50,[2],< 100 nM
"C[C@@H](NC(=O)[C@@H]1C[C@@H](S(C)(=O)=O)CN1C(=O)CNC(=O)c1ccc(C(F)(F)c2ccccc2)cc1)c1cc(C(=N)N)cs1 [Compound 168, (2S,4R)—N—((R)-1-(4-carbamimidoylthiophen-2-yl)ethyl)-1-((4-(difluoro(phenyl)methyl)benzoyl)glycyl)-4-(methylsulfonyl)pyrrolidine-2-carboxamide]",IC50,[2],< 100 nM
"C[C@@H](NC(=O)[C@@H]1C[C@@H](S(C)(=O)=O)CN1C(=O)CNC(=O)c1ccc2c(c1)C(F)(F)c1ccccc1-2)c1cc(C(=N)N)cs1 [Compound 265, (2S,4R)—N—((R)-1-(4-carbamimidoylthiophen-2-yl)ethyl)-1-((9,9-difluoro-9H-fluorene-2-carbonyl)glycyl)-4-(methylsulfonyl)pyrrolidine-2-carboxamide]",IC50,[1],< 100 nM
"Nc1nc(-c2csc(CNC(=O)[C@@H]3CC4(CN3C(=O)CNC(=O)c3ccc(Oc5ccc(F)cc5)cc3)OCCO4)c2)cs1 [Compound 186, (S)—N-((4-(2-aminothiazol-4-yl)thiophen-2-yl)methyl)-7-((4-(4-fluorophenoxy)benzoyl)glycyl)-1,4-dioxa-7-azaspiro[4.4]nonane-8-carboxamide]",IC50,[2],> 1000 nM
"NCCC(=O)Nc1csc(CNC(=O)[C@@H]2CC3(CN2C(=O)CNC(=O)c2ccc(Oc4ccc(F)cc4)cc2)OCCO3)c1 [Compound 311, (S)-N-((4-(3-aminopropanamido)thiophen-2-yl)methyl)-7-((4-(4-fluorophenoxy)benzoyl)glycyl)-1,4-dioxa-7-azaspiro[4.4]nonane-8-carboxamide]",IC50,[1],> 1000 nM
"CC(NC(=O)[C@@H]1C[C@@H](Oc2ccccc2)CN1C(=O)CNC(=O)c1ccc2c(c1)-c1ccccc1C2(F)F)c1cc(C(=N)N)cs1 (stereo in doubt) [Compound 51, (2S,4R)—N—((S)-1-(4-carbamimidoylthiophen-2-yl)ethyl)-1-((9,9-difluoro-9H-fluorene-3-carbonyl)glycyl)-4-phenoxypyrrolidine-2-carboxamide]",IC50,[2],< 100 nM
"COc1cccc(F)c1-c1ccc(C(=O)NCC(=O)N2CC3(C[C@H]2C(=O)NCc2cc(C(=N)N)cs2)OCCO3)cc1 [Compound 241, (S)—N-((4-carbamimidoylthiophen-2-yl)methyl)-7-((2′-fluoro-6′-methoxy-[1,1′-biphenyl]-4-carbonyl)glycyl)-1,4-dioxa-7-azaspiro[4.4]nonane-8-carboxamide]",IC50,[1],< 100 nM
"C[C@@H](NC(=O)[C@@H]1CC2(CN1C(=O)CNC(=O)c1cc3ccc1CCc1ccc(cc1)CC3)OCCO2)c1cc(C(=N)N)cs1 [Compound 66, (S)-7-((1,4(1,4)-dibenzenacyclohexaphane-1^2-carbonyl)glycyl)-N—((R)-1-(4-carbamimidoylthiophen-2-yl)ethyl)-1,4-dioxa-7-azaspiro[4.4]nonane-8-carboxamide]",IC50,[2],< 100 nM
"C[C@@H](NC(=O)[C@@H]1C[C@](F)(COCCNC(=O)CC[C@H](NC(=O)CCCCCCCCCCCCCCCCC(=O)O)C(=O)O)CN1C(=O)CNC(=O)c1ccc(Oc2ccc(F)cc2)cc1)c1cc(C(=N)N)cs1 [Compound 106, 18-(((S)-4-((2-(((3R,5S)-5-(((R)-1-(4-carbamimidoylthiophen-2-yl)ethyl)carbamoyl)-3-fluoro-1-((4-(4-fluorophenoxy)benzoyl)glycyl)pyrrolidin-3-yl)methoxy)ethyl)amino)-1-carboxy-4-oxobutyl)amino)-18-oxooctadecanoic acid]",IC50,[2],< 100 nM
"C[C@@H](NC(=O)[C@@H]1C[C@@H](OC(F)F)CN1C(=O)CNC(=O)c1ccc2c(c1)Oc1ccccc1S2)c1cc(C(=N)N)cs1 [Compound 328, (2S,4R)—N—((R)-1-(4-carbamimidoylthiophen-2-yl)ethyl)-4-(difluoromethoxy)-1-((phenoxathiine-3-carbonyl)glycyl)pyrrolidine-2-carboxamide]",IC50,[1],< 100 nM
"C[C@@H](NC(=O)[C@@H]1C[C@]2(COCCCN(C)C)C[C@@H]2N1C(=O)CNC(=O)c1ccc2c(c1)-c1ccccc1C2(F)F)c1cc(C(=N)N)cs1 [Compound 422, (1S,3S,5R)-N-((R)-1-(4-carbamimidoylthiophen-2-yl)ethyl)-2-((9,9-difluoro-9H-fluorene-3-carbonyl)glycyl)-5-((3-(dimethylamino)propoxy)methyl)-2-azabicyclo[3.1.0]hexane-3-carboxamide]",IC50,[3],< 100 nM
"Cc1cnc(-c2ccc(C(=O)NCC(=O)N3CC4(C[C@H]3C(=O)N[C@H](C)c3cc(C(=N)N)cs3)OCCO4)cc2)c(C)c1 [Compound 173, (S)—N—((R)-1-(4-carbamimidoylthiophen-2-yl)ethyl)-7-((4-(3,5-dimethylpyridin-2-yl)benzoyl)glycyl)-1,4-dioxa-7-azaspiro[4.4]nonane-8-carboxamide]",IC50,[2],< 100 nM
"CCc1ccc(Oc2ccc(C(=O)NCC(=O)N3C[C@H](OC(F)F)C[C@H]3C(=O)N[C@H](C)c3cc(C(=N)N)cs3)cc2)cc1 [Compound 39, (2S,4R)—N—((R)-1-(4-carbamimidoylthiophen-2-yl)ethyl)-4-(difluoromethoxy)-1-((4-(4-ethylphenoxy)benzoyl)glycyl)pyrrolidine-2-carboxamide]",IC50,[2],< 100 nM
"C[C@@H](NC(=O)[C@@H]1C[C@@H](OC(F)F)CN1C(=O)CNC(=O)c1ccc(Oc2ccc(C3CC3)cc2)cc1)c1cc(C(=N)N)cs1 [Compound 64, (2S,4R)—N—((R)-1-(4-carbamimidoylthiophen-2-yl)ethyl)-1-((4-(4-cyclopropylphenoxy)benzoyl)glycyl)-4-(difluoromethoxy)pyrrolidine-2-carboxamide hydrochloride]",IC50,[2],< 100 nM
"C[C@@H]1C[C@@H](C(=O)N[C@H](C)c2cc(C(=N)N)cs2)N(C(=O)CNC(=O)c2ccc3c(c2)-c2ccccc2C3(F)F)C1 [Compound 62, (2S,4R)—N—((R)-1-(4-carbamimidoylthiophen-2-yl)ethyl)-1-((9,9-difluoro-9H-fluorene-3-carbonyl)glycyl)-4-methylpyrrolidine-2-carboxamide]",IC50,[2],< 100 nM
"COC[C@@]1(F)C[C@@H](C(=O)N[C@H](C)c2cc(C(=N)N)cs2)N(C(=O)CNC(=O)c2ccc3c(c2)C(F)(F)c2ccccc2-3)C1 [Compound 264, (2S,4R)—N—((R)-1-(4-carbamimidoylthiophen-2-yl)ethyl)-1-((9,9-difluoro-9H-fluorene-2-carbonyl)glycyl)-4-fluoro-4-(methoxymethyl)pyrrolidine-2-carboxamide]",IC50,[1],< 100 nM
"C[C@@H](NC(=O)[C@@H]1CC2(CN1C(=O)CNC(=O)c1ccc3c(c1)-c1ccccc1C3(F)F)OCCO2)c1cc(-c2cc[nH]n2)cs1 [Compound 97, (S)—N—((R)-1-(4-(1H-pyrazol-3-yl)thiophen-2-yl)ethyl)-7-((9,9-difluoro-9H-fluorene-3-carbonyl)glycyl)-1,4-dioxa-7-azaspiro[4.4]nonane-8-carboxamide]",IC50,[2],> 1000 nM
"CC1(C)c2ccccc2-c2cc(C(=O)NCC(=O)N3CC4(C[C@H]3C(=O)N[C@H](CO)c3cc(C(=N)N)cs3)OCCO4)ccc21 [Compound 399, (S)—N—((R)-1-(4-carbamimidoylthiophen-2-yl)-2-hydroxyethyl)-7-((9,9-dimethyl-9H-fluorene-3-carbonyl)glycyl)-1,4-dioxa-7-azaspiro[4.4]nonane-8-carboxamide]",IC50,[3],< 100 nM
